Laboratory results from US7906709B2, “Methods for breeding glyphosate resistant plants and compositions thereof” (priority 2006, dated 2011).
Marks after values point to notes of the source that are not given here.

Tests used:
[1] = test system: S biotype of the California rigid ryegrass; experiment: Glyphosate drops on leaves, susceptible biotype; format: in vivo, Lolium rigidum; settings: three 2 µl drops on two leaves, corresponds to 1.12 kg ai ha^-1; one week after treatment; ROUNDUP ULTRA (isopropylamine salt)
Method: (§1) Rigid ryegrass (Lolium rigidum Gaud.) plants are collected from an almond orchard intensively treated with glyphosate since 1984. The collected plants are grown and seed produced in greenhouse. The resistant, intermediate and susceptible biotypes are selected in the first generation using 1.12, 2.24, and 3.36 kg ai ha^−1 rates of glyphosate. Further selection is continued with a high glyphosate rate (8.96 kg ai ha^−1) to select for the resistant and with the low rate (0.28 kg ai ha^−1) to select for the susceptible individuals. The resistant (R) and susceptible (S) biotypes used in this example are generated from the 5th and 4th cycle, respectively.
R and S biotypes of the California rigid ryegrass are grown individually to the fully vegetatively mature stage prior to seedhead formation. In one experiment, two fully mature leaves of each plant (one R and one S biotypes) are treated with three 2 μl drops of glyphosate (glyphosate isopropylamine salt, ROUNDUP ULTRA™, Monsanto Co., St. Louis, Mo.) solution applied to the upper leaf surface. This corresponds to a field rate of 1.12 kg ai ha^−1 glyphosate at a volume of 187 L ha^−1 and pressure of 172.5 kPa. One week after treatment, the S biotype is dead, but no injury is observed on the R biotype.

[2] = test system: EPSPS from R and S biotypes of rigid ryegrass; experiment: EPSPS activity assay in the presence of glyphosate; format: biochemical, Lolium rigidum; settings: glyphosate from 5 to 5000 µM; crown tissue extract; R versus S biotype
Method: Extraction methods for EPSPS are modified from methods discussed in Boerboom et al., Weed Sci. 38:463-467 (1990). Crown tissue (0.5 gram fresh weight per sample) is harvested from California rigid ryegrass plants, frozen in liquid nitrogen, and grounded in a cold mortar with 150 mg polyvinylpolypyrrolidone (PVPP). The fine powder tissue is ground further in 0.5 ml extraction buffer (pH 7.5) containing 10 mM Trizma HC1, 1 mM ethylenediaminetetraacetic acid (EDTA), 10% (v/v) glycerol, 1 mg ml^−1 bovine serum albumin (BSA), 10 mM ascorbate, 1 mM benzamidine (BAM), and 5 mM dithiothreitol (DTT). The mixture is centrifuged at 15,000×g for 10 min, and the supernatant is desalted in 1.0 ml Sephadex G-50 column (^7 MICRO-SPINS® Shephadex G-50 column, Life Science Products Inc., Frederick, Colo.) and further centrifuged at 1,000×g for 3 min. Total protein in the supernatant is quantified spectrometrically at 595 nm followed the method discussed in Bradford, Anal. Biochem 72:248-254 (1976).
Assay of EPSPS activity is modified from methods discussed in Westwood and Weller, Weed Sci. 45:2-11 (1997). […]
Data from duplicate experiments with three replications of each treatment are analyzed by non-linear regression and fitted to a log-logistic model, […]

[3] = test system: F2 population of rigid ryegrass; experiment: Glyphosate sensitivity of F2 population (RxS intercross); format: in vivo, Lolium rigidum; settings: of 400 F2 plants
Method: Twenty uniform non-sprayed plants of the F1 progeny (R×S) are grown and pooled to allow intercrossing to generate F2. Seeds are harvested at maturity and grown as described previously. Glyphosate sensitivity is further evaluated in the F2 population. At the tillering stage, as described previously, 400 plants of the F2 population are sprayed with 0.125× glyphosate (the rate used to identify the sensitive parent). The number of sensitive plants (severely injured and dead) is recorded 3 to 4 WAT. The survivors are re-acclimated for another week and re-sprayed with 8× glyphosate (the rate used to identify the resistant parent). The number of survivors is recorded 3 to 4 WAT. […] Expected ratios in the F2 population between sensitive, intermediate, and the resistant are evaluated with the model of one or two genes involved in the inheritance of glyphosate resistance as discussed in, for example, Diggle and Neve in Herbicide Resistance and World Grains, S. B. Powles and D. L. Shaner, eds. CRC Press, Boca Raton, London, New York, Washington, D.C., pp. 61-99 (2001). Chi-square analyses are used to determine the most acceptable ratio for F2 segregation and the inheritance of the glyphosate resistance.

[4] = test system: first generation of rigid ryegrass (Lolium rigidum) collected from California; experiment: Glyphosate resistance and sensitivity of the first generation; format: in vivo; settings: for Survivors: means of two experiments with 90 plants
Method: as §1
The collected plants produced seeds in the greenhouse after 8 to 10 weeks. The seeds are designated as the first generation, harvested and replanted for glyphosate resistant evaluation. The percentages of survivors are 89, 59, 45, and 9 percent following glyphosate application at 1×, 2×, 4× and 8×, respectively, is shown in Table 2.

[5] = glyphosate 1.12 kg ai ha^-1 (1x)
[6] = glyphosate 2.24 kg ai ha^-1 (2x)
[7] = glyphosate 4.48 kg ai ha^-1 (4x)
[8] = glyphosate 8.96 kg ai ha^-1 (8x)

For `O=C(O)CNCP(=O)(O)O` [glyphosate, N-(phosphonomethyl) glycine], the Plant injury [1] was “dead”, the “inhibition of EPSPS activity” value [2] was “significantly inhibited more in S than in R” and the “Sensitive plants (died from 0.125× glyphosate), observed” value ([3]; 0.125× glyphosate, 3 to 4 WAT) was 27 plants. For the same molecule, the “Intermediate plants (0.125x-8x), observed” value ([3]; between 0.125× and 8× glyphosate) was 352 plants, the “Resistant plants (survived 8× glyphosate), observed” value ([3]; re-sprayed with 8× glyphosate, 3 to 4 WAT) was 21 plants and the Dead plants [4, 5] was 11^c percent. The Survivors [4, 5] was 89%, the Dead plants [4, 6] was 41% and the Survivors [4, 6] was 59%. The Dead plants [4, 7] was 55%, the Survivors [4, 7] was 45% and the Dead plants [4, 8] was 91%. The Survivors [4, 8] was 9% and the Survivors ([4]; glyphosate 8.96 kg ai ha^-1 (8x), listed as Glyphosate) was 9^b percent.
